One assay deals with T1, ΔTM rFAAH (Rattus norvegicus, UniProt P97612).
T1 construct: 15 ug of ΔTM rFAAH (cell lysate obtained by recombinant procedure); made in house
T1 sequence (P97612 30-579 limits assumed): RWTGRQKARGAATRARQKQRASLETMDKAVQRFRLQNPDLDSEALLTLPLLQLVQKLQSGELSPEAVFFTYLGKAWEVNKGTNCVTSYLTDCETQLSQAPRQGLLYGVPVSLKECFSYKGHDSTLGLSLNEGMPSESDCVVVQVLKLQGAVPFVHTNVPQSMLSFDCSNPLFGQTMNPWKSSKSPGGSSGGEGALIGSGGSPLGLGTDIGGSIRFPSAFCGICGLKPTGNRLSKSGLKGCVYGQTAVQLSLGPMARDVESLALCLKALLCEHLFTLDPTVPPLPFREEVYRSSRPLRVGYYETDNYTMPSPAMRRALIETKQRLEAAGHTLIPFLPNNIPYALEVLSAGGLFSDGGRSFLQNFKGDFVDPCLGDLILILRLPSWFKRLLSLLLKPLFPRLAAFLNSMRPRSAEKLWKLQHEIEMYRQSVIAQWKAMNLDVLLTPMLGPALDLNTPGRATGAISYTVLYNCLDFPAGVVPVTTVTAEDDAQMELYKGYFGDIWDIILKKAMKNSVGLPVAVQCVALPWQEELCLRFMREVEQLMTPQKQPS
The experiment in a line: Fluorescent enzyme assay, FAAH (AAMCA hydrolysis). Format: biochemical. The note with it: for inhibition at 0.01 µM: 10 nM inhibitor; for inhibition at 0.01 µM / inhibition at 1 µM: AAMCA substrate, screening assay; for inhibition at 1 µM: 1000 nM inhibitor. The protocol: (§1) Some analogs were tested for their FAAH/MGL inhibitory activity, which is expressed as % of inhibition (Tables 2, 3, and 4 below). The percentage of inhibition results from three-point assay (three concentrations of inhibitor are used) and it is less accurate (preliminary screening) than the IC50/Ki values that are determined from eight-point assay (eight different concentrations of inhibitor were used). The percentage of inhibition describes the percentage by which the inhibitor reduces the velocity/rate of AAMCA (arachidonoyl-7-amino-4-methylcoumarin amide) or AHMMCE (arachidonoyl-7-hydroxy-6-methoxy-4-methylcoumarin ester) hydrolysis by FAAH or MGL respectively. The IC50 is the concentration of the inhibitor, which results in 50% inhibition of the velocity/rate of AAMCA (arachidonoyl 7-amino-4-methylcoumarin amide) hydrolysis by FAAH or AHMMCE (Arachidonoyl, 7-hydroxy-6-methoxy-4-methylcoumarin ester) hydrolysis by MGL. The Ki value is the affinity constant and describes the ability of the compounds to inhibit the function of FAAH or MGL. The lower the IC50/Ki values, the higher the affinity of the inhibitor for the enzyme and the higher its inhibitory activity. A detailed description of the methods used to test inhibitory activity of compounds is given below.
The enzyme (FAAH and MGL) assays were performed in 96 well plates (Coster #3650) in a total volume of 200 uL. Fluorogenic substrate AAMCA (arachidonoyl 7-amino-4-methylcoumarin amide) for FAAH and AHMMCE (arachidonoyl 7-hydroxy-6-methoxy-4-methylcoumarin ester) for MGL were used using BioTek Synergy HT Microplate Reader. Compounds and substrates were dissolved in DMSO provide a 10 mM stock solution and kept as a stock solution at −20° C. until used for assay. Stock solutions were thawed and reconstituted in 50:50 DMSO/assay buffer to a final DMSO concentration per well below 8%. This ensures that the compounds and substrate are in solution during assay. […] Appropriate substrate was added to adjust the final concentration in each well to 20 uM for FAAH (2× Km) and 10 uM for MGL (1×KM). Fluorescence readings were performed at λex=360/λem=460 for 4 h using Kinetic assay protocol at every 20 min (the fluorescent product coumarin produced is quantitated by this procedure). The readings at 3 h for FAAH and 2 h for MGL (linear maximum hydrolysis kinetics of enzyme on substrate) were used to calculate percent inhibition based on controls. Compounds which had more than 50 percent inhibition at 10 uM were selected for dose response study to determine IC50 values. The dose response at 8 concentration points was performed as with the screening assay except that compounds were serially diluted to 8 concentration points which were chosen based on IC50 value, which were calculated from the screening assay results. Assays are run twice in triplicates and Graphpad Prism software is used to plot inhibition data to obtain IC50 values.

A further assay concerns the target T2, hMGL (Homo sapiens, UniProt Q99685).
T2 construct: A full-length cDNA clone of the human MGL transcript variant 1; made in house; host or cells: E. coli BL21 (DE3)
T2 sequence (Q99685 2-303 limits assumed): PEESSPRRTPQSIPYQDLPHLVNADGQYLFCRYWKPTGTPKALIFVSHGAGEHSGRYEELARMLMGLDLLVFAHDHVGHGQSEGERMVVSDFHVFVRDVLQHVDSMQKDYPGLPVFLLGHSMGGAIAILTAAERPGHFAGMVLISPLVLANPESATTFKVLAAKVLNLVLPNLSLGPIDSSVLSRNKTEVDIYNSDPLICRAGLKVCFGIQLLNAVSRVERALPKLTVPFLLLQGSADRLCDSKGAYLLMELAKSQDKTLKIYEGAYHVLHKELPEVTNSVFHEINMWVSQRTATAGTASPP
The experiment in a line: Fluorescent enzyme assay, MGL (AHMMCE hydrolysis). Format: biochemical. The note with it: for inhibition at 0.01 µM: 10 nM inhibitor, read-out: % Inhibition of Enzyme by inhibitor, MGL, 10 nM; for inhibition at 0.01 µM / inhibition at 1 µM: AHMMCE substrate, screening assay; for inhibition at 1 µM: 1000 nM inhibitor. The protocol:
as §1
A full-length cDNA clone of the human MGL transcript variant 1 (gi: 51242951) was obtained from OriGene Technologies (Rockville, Md.). The coding part of the MGL sequence (except the translation initiation codon ATG) was amplified by a polymerase chain reaction (PCR) using forward […] and reverse […] primers containing PmlI and SacI restriction enzyme recognition sites, respectively. iProof high-fidelity DNA polymerase (Bio-Rad, Hercules, Calif.) was used in the PCR amplification with 33 cycles, each consisting of denaturation at 94° C. for 10 s, annealing at 55° C. for 33 s, and extension at 72° C. for 1 min. The PCR product and pET45b vector were digested with PmlI and SacI restriction enzymes, and the vector was dephosphorylated with CIP followed by in-gel purification using the MinElute Gel Extraction Kit (Qiagen Corp., Valencia, Calif.). The fragment was inserted into the vector directly downstream after the 6 histidine and valine codons, generating the construct pET45His6hMGL for expression of hMGL containing an N-terminal His6-tag. GC10 E. coli cells were used for DNA transformation and plasmid propagation. Mini- and midi-scale plasmid DNA preparations were performed using a GenElute Plasmid Miniprep Kit (Sigma) and PureYield Plasmid Midiprep System (Promega, Madison, Wis.), respectively. In-frame vector-fragment junctions and the coding sequence of the recombinant gene were confirmed by sequencing. The pET45His6hMGL construct was transformed into BL21 (DE3) and Origami (DE3) E. coli expression strains (Novagen, Madison, Wis.).
A single E. coli BL21 (DE3) colony containing the pET45His6hMGL plasmid was inoculated into 12 mL of Luria broth-ampicillin medium and grown overnight with shaking (250 rpm) at 37° C. The next morning, 10 mL of this culture was inoculated into 1 L of fresh Luria broth-ampicillin and allowed to grow until culture turbidity reached an (OD)600 of 0.6-0.8, at which time expression from the T7 promoter was induced by adding isopropyl-β-D-thio-galactopyranoside (1 mM). After 5 h induction, the cells were harvested by centrifugation at 5,000 g for 10 min at 4° C., washed with PBS, and held at −80° C. Five grams (wet-weight) of cells were resuspended in 50 mL lysis buffer (100 mM NaCl; 50 mM Tris, pH 8.0) supplemented with Triton X-100 (0.5%), lysozyme (0.2 mg/mL), and DNase I (25 μg/ml) and disrupted on ice by three, one-min sonication cycles, each consisting of 1-sec sonication bursts at 50 W power separated from each other by a 2-sec interval (Vibra-Cell 500 W, Sonics, Newtown, Conn.). The cell lysate was centrifuged at 10,000 g for 30 min at 4° C. […]

The mark [1] stands for this setting: 100 uM inhibitor, printed in the 1000 nM column.

As a reminder, the inhibition is the percentage by which the read-out fell short of the control.

`CN(C)C(=O)n1nnnc1Cc1ccc(Cl)cc1Cl` [Compound 17b]: the inhibition at 0.01 µM stood at 86% on ΔTM rFAAH and 97% at hMGL.

On to `CN(C)C(=O)n1nnc(Cc2ccc(OC(F)(F)F)cc2)n1` [Compound 19a], for which the inhibition at 0.01 µM at ΔTM rFAAH worked out at 92%; at hMGL, 99%.

With `CN(C)C(=O)n1nnc(Cc2ccc(C(F)(F)F)cc2)n1` [Compound 20a, N,N-dimethyl-5-[4-(trifluoromethyl)benzyl]-2H-tetrazole-2-carboxamide], the values for the inhibition at 0.01 µM at ΔTM rFAAH and on hMGL were 93% and 98%, respectively.

For `CC(C)N(C(=O)n1nnc(Cc2ccc(Cl)cc2Cl)n1)C(C)C` [Compound 10, 5-(2,4-dichlorobenzyl)-N,N-diisopropyl-tetrazole-2-carboxamide], the inhibition at 1 µM on ΔTM rFAAH came to 94%; at hMGL, 11%.

On to `CN(C)C(=O)n1cnnc1` [Compound 29, N,N-dimethyl-4H-1,2,4-triazole-4-carboxamide], for which the inhibition at 1 µM on ΔTM rFAAH is 92%; against hMGL, 79%.

Take `CN(C)C(=O)n1cnnn1` [Compound 1b]: the inhibition at 0.01 µM at ΔTM rFAAH came out at 51%; on hMGL it was 13%.

For `Cc1ccc(Cc2nnn(C(=O)N(C)C)n2)cc1` [Compound 26a, N,N-dimethyl-5-(4-methylbenzyl)-2H-tetrazole-2-carboxamide], the inhibition at 0.01 µM at ΔTM rFAAH worked out at 93%; at hMGL it was 96%.

Consider `CCN(CC)C(=O)n1nnc(Cc2ccc(Cl)cc2Cl)n1` [Compound 9, 5-(2,4-dichlorobenzyl)-N,N-diethyl-tetrazole-2-carboxamide], for which the results for the inhibition at 0.01 µM on ΔTM rFAAH and at hMGL were 95% and 43%, respectively.

In the case of `CN(C)C(=O)n1cnc2cncnc21` [Compound 61, N,N-dimethyl-9H-purine-9-carboxamide], the inhibition at 1 µM on ΔTM rFAAH and against hMGL was 87% in each case.

Turning to `CN(C)C(=O)n1nnc(Cc2ccc(I)cc2)n1` [Compound 18a, 5-(4-iodobenzyl)-N,N-dimethyl-2H-tetrazole-2-carboxamide], the inhibition at 0.01 µM was found to be 92% at ΔTM rFAAH and 97% at hMGL.

As to `CC(=O)Nc1ccc(Cc2nnnn2C(=O)N(C)C)cc1` [Compound 25b], the inhibition at 1 µM is 88% at ΔTM rFAAH and 90% against hMGL.

For `CN(CCCCN=[N+]=[N-])C(=O)n1cnc(-c2ccccc2)c1` [Compound 48, N-(4-azidobutyl)-N-methyl-4-phenyl-1H-imidazole-1-carboxamide], the inhibition at 0.01 µM on ΔTM rFAAH worked out at 8%. The inhibition at 1 µM on ΔTM rFAAH was found to be 90%; at hMGL, 14%.

`CN(C)C(=O)n1nnc(Cc2cccc3ccccc23)n1` [Compound 50, N,N-dimethyl-5-(naphthalen-1-ylmethyl)-2H-tetrazole-2-carboxamide]: the inhibition at 100 µM at ΔTM rFAAH (setting [1]) was 85%; against hMGL (setting [1]), 42%.

As for `CN(C)C(=O)n1nnnc1Cc1ccc(Br)cc1` [Compound 16b], the inhibition at 0.01 µM at ΔTM rFAAH stood at 92%; at hMGL it was 64%.

On to `CN(C)C(=O)n1ccc(-c2ccccc2)n1` [Compound 30, N,N-dimethyl-3-phenyl-1H-pyrazole-1-carboxamide], for which the inhibition at 1 µM was determined as 23% at ΔTM rFAAH and 11% on hMGL.

As for `O=C(N(c1ccccc1)c1ccccc1)n1nnnc1Cc1ccc(Cl)cc1Cl` [Compound 8b], the results for the inhibition at 1 µM on ΔTM rFAAH and at hMGL were 9% and 21%, respectively.

In the case of `CN(C)C(=O)n1nnnc1Cc1ccc(I)cc1` [Compound 18b], the results for the inhibition at 0.01 µM on ΔTM rFAAH and on hMGL were 86% and 64%, respectively.

`CSc1ccc(Cc2nnn(C(=O)N(C)C)n2)cc1` [Compound 23a]: the inhibition at 0.01 µM at ΔTM rFAAH amounted to 91%; at hMGL, 98%.

Consider `CN(C)C(=O)n1nnnc1Cc1ccc(C(F)(F)F)cc1` [Compound 20b], for which the inhibition at 0.01 µM was 90% at ΔTM rFAAH and 6% on hMGL.

Turning to `CN(C)C(=O)n1nnnc1Cc1ccccc1` [Compound 35, 5-benzyl-N,N-dimethyl-1H-tetrazole-1-carboxamide], the figures for the inhibition at 0.01 µM on ΔTM rFAAH and at hMGL were 81% and 41%, respectively.

Turning to `CN(C(=O)n1nnnc1Cc1ccc(Cl)cc1Cl)c1ccccc1` [Compound 7b], the inhibition at 0.01 µM was 89% at ΔTM rFAAH and 8% on hMGL.

Regarding `CN(C)C(=O)n1nnc(Cc2ccc(Cl)cc2)n1` [Compound 21a], the inhibition at 0.01 µM at ΔTM rFAAH was 93%; on hMGL it was 97%.

For the molecule `CN(C)C(=O)n1cnc2ncncc21` [Compound 60, N,N-dimethyl-7H-purine-7-carboxamide], the inhibition at 1 µM at ΔTM rFAAH worked out at 96%; at hMGL it was 86%.
